Reference: PubChem BioAssay AID588656 (The Scripps Research Institute Molecular Screening Center, 2011)

Columns and labels:
[1] = target: Mitogen-activated protein kinase 1 (Homo sapiens) (UniProt P28482); assay: altered MAPK1 (ERK1/2) protein abundance – HT29 cells, chemiluminescent western blot, powder samples, counter-screen for KLF5 inhibitor project, late-stage follow-up (AID 588656); details: HT29 cells, ERK1/2 western blot, 24 h; at 10 µM; stronger effect = higher value
[2] = system: HT29 cells, ERK1/2 western blot, 24 h; assay: as above; details: measured here: ERK1/2 protein fold change vs DMSO; at 10 µM

Chain of Mitogen-activated protein kinase 1 (Homo sapiens) (P28482 whole entry, looked up): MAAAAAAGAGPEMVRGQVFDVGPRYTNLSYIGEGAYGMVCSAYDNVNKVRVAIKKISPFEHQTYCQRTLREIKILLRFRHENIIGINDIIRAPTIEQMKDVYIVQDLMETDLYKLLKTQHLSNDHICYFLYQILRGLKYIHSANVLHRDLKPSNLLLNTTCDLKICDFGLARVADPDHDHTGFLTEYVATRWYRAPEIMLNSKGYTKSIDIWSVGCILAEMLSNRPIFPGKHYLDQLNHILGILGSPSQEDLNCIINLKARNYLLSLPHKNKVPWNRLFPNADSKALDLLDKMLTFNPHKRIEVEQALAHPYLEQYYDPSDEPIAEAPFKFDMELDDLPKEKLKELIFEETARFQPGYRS

| inhibition [1] [%] | Structure (SMILES) | fold change [2] |
| --- | --- | --- |
| -96.5 | CN(C(=O)CNC(=O)/C=C/c1cccc(Cl)c1)C1CCS(=O)(=O)CC1 | 1.97 |
| -46.4 | CN(C(=O)COC(=O)/C=C/c1cccc([N+](=O)[O-])c1)C1CCS(=O)(=O)C1 (stereo unspecified) | 1.46 |
| -96.6 | CN(C(=O)CNC(=O)/C=C/c1cccc(Cl)c1)C1CCS(=O)(=O)C1 (stereo unspecified) | 1.97 |
